Results: article PMC3961306, “Comparison of the Cancer Gene Targeting and Biochemical Selectivities of All Targeted Kinase Inhibitors Approved for Clinical Use” (PLoS ONE, 2014)

Experiments:
Assay in all cases: Kinase profiling in a biochemical assay panel (mobility shift assays and ELISA), %-inhibition at 1 μM; selectivity entropy
[1] = biological target: T1, panel of more than 300 wild-type and mutant kinases (313 kinase panel) (Homo sapiens, UniProt O00141)
T1 sequence (O00141 1-431): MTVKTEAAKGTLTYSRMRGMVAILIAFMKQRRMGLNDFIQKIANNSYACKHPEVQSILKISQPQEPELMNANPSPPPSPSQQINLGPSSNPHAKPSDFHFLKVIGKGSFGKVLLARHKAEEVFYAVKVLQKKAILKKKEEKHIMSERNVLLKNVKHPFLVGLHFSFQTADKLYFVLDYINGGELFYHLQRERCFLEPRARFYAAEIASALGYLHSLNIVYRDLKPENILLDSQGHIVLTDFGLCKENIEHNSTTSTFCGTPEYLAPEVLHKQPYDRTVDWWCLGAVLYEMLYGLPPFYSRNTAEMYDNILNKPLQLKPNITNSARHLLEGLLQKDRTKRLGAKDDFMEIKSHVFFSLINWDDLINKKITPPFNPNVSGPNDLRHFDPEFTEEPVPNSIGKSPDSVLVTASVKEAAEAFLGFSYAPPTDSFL

[2] = biological target: panel of more than 300 wild-type and mutant kinases (313 kinase panel) (Homo sapiens, UniProt P19525)
[3] = biological target: panel of more than 300 wild-type and mutant kinases (313 kinase panel) (Homo sapiens, UniProt Q13464)
[4] = biological target: T2, panel of more than 300 wild-type and mutant kinases (313 kinase panel) (Homo sapiens, UniProt Q96BR1)
T2 sequence (Q96BR1 1-496): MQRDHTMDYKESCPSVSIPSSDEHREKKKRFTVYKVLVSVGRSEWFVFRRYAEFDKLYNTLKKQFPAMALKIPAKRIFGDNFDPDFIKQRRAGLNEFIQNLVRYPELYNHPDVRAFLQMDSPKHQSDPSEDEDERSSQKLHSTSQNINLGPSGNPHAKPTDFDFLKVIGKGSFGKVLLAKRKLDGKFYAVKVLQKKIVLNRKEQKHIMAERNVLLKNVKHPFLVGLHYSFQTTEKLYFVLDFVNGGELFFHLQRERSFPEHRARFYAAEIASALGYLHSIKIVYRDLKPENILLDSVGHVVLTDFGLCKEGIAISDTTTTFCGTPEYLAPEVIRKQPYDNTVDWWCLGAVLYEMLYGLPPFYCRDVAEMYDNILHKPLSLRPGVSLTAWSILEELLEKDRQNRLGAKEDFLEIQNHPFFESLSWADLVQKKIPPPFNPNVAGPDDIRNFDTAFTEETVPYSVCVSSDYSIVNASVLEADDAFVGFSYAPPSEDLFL

[5] = biological target: panel of more than 300 wild-type and mutant kinases (313 kinase panel) (Homo sapiens, UniProt Q9Y6R4)
Sequence of panel of more than 300 wild-type and mutant kinases (313 kinase panel) (Homo sapiens, UniProt Q9Y6R4) (Q9Y6R4 whole entry, change not shown): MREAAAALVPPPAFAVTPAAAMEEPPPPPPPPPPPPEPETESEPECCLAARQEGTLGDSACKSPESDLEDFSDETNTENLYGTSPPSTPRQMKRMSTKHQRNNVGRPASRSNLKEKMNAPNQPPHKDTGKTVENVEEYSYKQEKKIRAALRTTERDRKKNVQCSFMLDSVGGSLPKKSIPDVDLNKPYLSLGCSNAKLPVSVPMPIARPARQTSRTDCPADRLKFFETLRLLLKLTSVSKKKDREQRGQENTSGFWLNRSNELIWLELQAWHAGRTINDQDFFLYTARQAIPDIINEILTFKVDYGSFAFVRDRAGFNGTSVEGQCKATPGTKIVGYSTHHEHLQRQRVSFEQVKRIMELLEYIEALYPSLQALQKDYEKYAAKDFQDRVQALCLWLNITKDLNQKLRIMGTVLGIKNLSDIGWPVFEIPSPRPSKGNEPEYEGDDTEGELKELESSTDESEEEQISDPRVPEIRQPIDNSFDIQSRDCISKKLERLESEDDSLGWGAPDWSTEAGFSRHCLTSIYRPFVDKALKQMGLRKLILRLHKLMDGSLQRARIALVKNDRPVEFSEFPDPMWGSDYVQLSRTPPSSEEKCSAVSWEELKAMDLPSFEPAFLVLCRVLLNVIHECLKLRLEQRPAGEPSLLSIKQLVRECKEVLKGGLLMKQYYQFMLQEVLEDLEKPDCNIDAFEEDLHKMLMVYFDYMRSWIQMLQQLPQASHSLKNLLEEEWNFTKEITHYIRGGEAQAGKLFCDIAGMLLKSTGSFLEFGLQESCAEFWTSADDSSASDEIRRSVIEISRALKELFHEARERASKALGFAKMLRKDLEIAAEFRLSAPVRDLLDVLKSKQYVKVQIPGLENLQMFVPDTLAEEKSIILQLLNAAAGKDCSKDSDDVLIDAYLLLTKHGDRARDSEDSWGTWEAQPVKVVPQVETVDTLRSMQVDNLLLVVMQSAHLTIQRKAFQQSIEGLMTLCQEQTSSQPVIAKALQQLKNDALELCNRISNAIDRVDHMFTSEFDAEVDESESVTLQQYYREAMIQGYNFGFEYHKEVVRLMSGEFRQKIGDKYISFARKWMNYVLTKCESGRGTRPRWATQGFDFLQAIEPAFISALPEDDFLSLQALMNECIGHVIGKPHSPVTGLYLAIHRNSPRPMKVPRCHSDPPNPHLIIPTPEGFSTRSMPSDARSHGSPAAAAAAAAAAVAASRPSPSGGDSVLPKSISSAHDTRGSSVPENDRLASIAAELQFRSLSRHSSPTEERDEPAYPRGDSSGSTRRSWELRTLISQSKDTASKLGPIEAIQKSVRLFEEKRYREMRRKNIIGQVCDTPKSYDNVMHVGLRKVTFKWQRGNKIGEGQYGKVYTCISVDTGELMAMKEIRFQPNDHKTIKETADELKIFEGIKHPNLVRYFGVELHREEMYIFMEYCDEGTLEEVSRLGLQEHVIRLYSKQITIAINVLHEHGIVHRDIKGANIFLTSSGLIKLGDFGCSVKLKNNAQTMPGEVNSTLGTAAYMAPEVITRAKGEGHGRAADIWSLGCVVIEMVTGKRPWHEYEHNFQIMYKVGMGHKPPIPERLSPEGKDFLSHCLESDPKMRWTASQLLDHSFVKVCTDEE

[6] = biological target: T3, panel of more than 300 wild-type and mutant kinases (313 kinase panel) (Homo sapiens, UniProt O15264)
T3 sequence (O15264 1-365): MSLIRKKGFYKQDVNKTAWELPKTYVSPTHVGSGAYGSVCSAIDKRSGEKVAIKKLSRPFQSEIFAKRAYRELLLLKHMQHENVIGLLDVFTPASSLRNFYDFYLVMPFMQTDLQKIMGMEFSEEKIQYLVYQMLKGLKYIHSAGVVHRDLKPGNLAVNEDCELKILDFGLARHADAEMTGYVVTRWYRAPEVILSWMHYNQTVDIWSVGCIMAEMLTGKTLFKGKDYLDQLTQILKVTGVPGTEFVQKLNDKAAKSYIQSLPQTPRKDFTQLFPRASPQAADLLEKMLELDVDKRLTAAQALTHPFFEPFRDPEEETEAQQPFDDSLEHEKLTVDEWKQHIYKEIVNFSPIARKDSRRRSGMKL

[7] = biological target: panel of more than 300 wild-type and mutant kinases (313 kinase panel) (Homo sapiens, UniProt O96013)
[8] = biological target: T4, panel of more than 300 wild-type and mutant kinases (313 kinase panel) (Homo sapiens, UniProt P45985)
T4 sequence (P45985 1-399): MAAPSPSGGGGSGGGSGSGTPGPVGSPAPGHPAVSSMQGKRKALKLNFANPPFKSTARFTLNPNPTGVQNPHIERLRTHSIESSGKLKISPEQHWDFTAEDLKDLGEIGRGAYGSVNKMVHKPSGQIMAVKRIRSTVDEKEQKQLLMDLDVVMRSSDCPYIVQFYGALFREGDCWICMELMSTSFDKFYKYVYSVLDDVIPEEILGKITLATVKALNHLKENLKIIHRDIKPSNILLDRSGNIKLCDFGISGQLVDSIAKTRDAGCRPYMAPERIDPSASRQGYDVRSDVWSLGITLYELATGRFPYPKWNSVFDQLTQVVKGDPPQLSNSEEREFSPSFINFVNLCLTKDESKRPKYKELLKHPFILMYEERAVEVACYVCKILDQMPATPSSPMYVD

[9] = kinase MAP3K4, compound at 1 μM
[10] = kinase MAP2K4, compound at 1 μM

Row | Compound | %-inhibition of SGK ([1]; kinase SGK, 1 μM) [%] | %-inhibition of PKR ([2]; kinase PKR, 1 μM) [%] | %-inhibition of ROCK1 ([3]; kinase ROCK1, 1 μM) [%] | %-inhibition of SGK3 ([4]; kinase SGK3, 1 μM) [%] | %-inhibition of MAP3K4 [5, 9] [%] | %-inhibition of p38δ ([6]; kinase p38δ, 1 μM) [%] | %-inhibition of PAK4 ([7]; kinase PAK4, 1 μM) [%] | %-inhibition of MAP2K4 [8, 10] [%] | %-inhibition of SGK ([1]; 1 µM) [%] | %-inhibition of p38δ ([6]; 1 µM) [%] | %-inhibition of PAK4 ([7]; 1 µM) [%] | %-inhibition of PKR ([2]; 1 µM) [%] | %-inhibition of MAP2K4 ([8]; 1 µM) [%] | %-inhibition of ROCK1 ([3]; 1 µM) [%] | %-inhibition of SGK3 ([4]; 1 µM) [%] | %-inhibition of MAP3K4 ([5]; 1 µM) [%]
1 | COc1cc(Nc2c(C#N)cnc3cc(OCCCN4CCN(C)CC4)c(OC)cc23)c(Cl)cc1Cl [bosutinib] | -5 | -13 | 1.43 | -7 | 96 | – | – | – | – | – | – | – | – | – | – | –
2 | COc1cc2nccc(Oc3ccc(NC(=O)C4(C(=O)Nc5ccc(F)cc5)CC4)cc3)c2cc1OC [cabozantinib] | -2 | -4.3 | 1.28 | -1.1 | -0.178 | 47 | -13 | -0.379 | – | – | – | – | – | – | – | –
3 | C[C@@H](Oc1cc(-c2cnn(C3CCNCC3)c2)cnc1N)c1c(Cl)ccc(F)c1Cl [crizotinib] | 1.46 | 6 | 3.39 | -3 | 5 | -3.41 | -5.56 | -1.24 | – | – | – | – | – | – | – | –
4 | CC(C)(C)c1nc(-c2cccc(NS(=O)(=O)c3c(F)cccc3F)c2F)c(-c2ccnc(N)n2)s1 [dabrafenib] | 4 | – | – | 0.0854 | 19 | -3.43 | 11 | -3 | – | – | – | – | – | – | – | –
5 | Cc1nc(Nc2ncc(C(=O)Nc3c(C)cccc3Cl)s2)cc(N2CCN(CCO)CC2)n1 [dasatinib] | 6 | 3 | – | 1.18 | – | 0.799 | – | -3.71 | – | – | – | – | – | – | – | –
6 | C#Cc1cccc(Nc2ncnc3cc(OCCOC)c(OCCOC)cc23)c1 [erlotinib] | – | – | – | – | – | – | – | – | 6 | 6 | -4 | 22 | -6 | 1.9 | 8 | -1.55
7 | O=S(=O)(c1cccc2cnccc12)N1CCCNCC1 [fasudil] | 2.82 | -4.39 | 83 | 7 | -18 | -4.39 | – | -5 | – | – | – | – | – | – | – | –
8 | CS(=O)(=O)CCNCc1ccc(-c2ccc3ncnc(Nc4ccc(OCc5cccc(F)c5)c(Cl)c4)c3c2)o1 [lapatinib] | 2.49 | -0.192 | -2.62 | – | – | 5.43 | – | 0.409 | – | – | – | – | – | – | 4.58 | 2
9 | Cc1ccc(Nc2nccc(N(C)c3ccc4c(C)n(C)nc4c3)n2)cc1S(N)(=O)=O [pazopanib] | -1.12 | – | -1.24 | -3.17 | 2.47 | -0.586 | 1.68 | – | – | – | – | – | – | – | – | –
10 | Cc1ccc(C(=O)Nc2ccc(CN3CCN(C)CC3)c(C(F)(F)F)c2)cc1C#Cc1cnc2cccnn12 [ponatinib] | 7.57 | 19 | 39 | -1.1 | 60 | – | – | – | – | – | – | – | – | – | – | –
11 | CCN(CC)CCNC(=O)c1c(C)[nH]c(/C=C2\C(=O)Nc3ccc(F)cc32)c1C [sunitinib] | 60 | – | 9 | – | – | – | 6.58 | – | – | – | – | – | – | – | – | –
12 | CCCS(=O)(=O)Nc1ccc(F)c(C(=O)c2c[nH]c3ncc(-c4ccc(Cl)cc4)cc23)c1F [vemurafenib] | -0.122 | -0.765 | 1.28 | -2.38 | 14 | 8 | -7 | – | – | – | – | – | – | – | – | –
